Source: paper PMC8063233 (The Journal of Clinical Endocrinology and Metabolism, 2020)

Assay: Plasma pharmacokinetics on day 7 of each treatment period
Assay type: in vivo, human
Conditions: day 7, verinurad + febuxostat with placebo (n = 36)

tmax, Median (min-max): 4.00 (3.00-8.08) h
SMILES: CC(C)(Sc1ccncc1-c1ccc(C#N)c2ccccc12)C(=O)O [Verinurad, verinurad]
